The Kinase Knowledgebase extract (Sharma et al. 2016)
Where “and” joins values, the source holds several entries; their conditions need not be identical. Equal entries are not always repeated.

Key:
[1] = target: EGFR (human) (UniProt P00533)
[2] = target: EGFR (UniProt P00533)
[3] = target: EGFR (UniProt P00533); conditions: a431
[4] = target: EGFR (UniProt P00533); conditions: swiss 3t3 fibroblast
[5] = target: MAPK14 (human) (UniProt Q16539); assay: Inhibition of MAPK14 Kinase Activity
[6] = target: EGFR (human) (UniProt P00533); remark: listed apart in the source
[7] = target: EGFR (human) (UniProt P00533); conditions: concentration not given here
[8] = target: PIK3CB;PIK3CD;PIK3CA (human) (UniProt O00329); assay: Assessment of PI3K Kinase Activity
PIK3CB;PIK3CD;PIK3CA (human), sequence (O00329 whole entry, looked up): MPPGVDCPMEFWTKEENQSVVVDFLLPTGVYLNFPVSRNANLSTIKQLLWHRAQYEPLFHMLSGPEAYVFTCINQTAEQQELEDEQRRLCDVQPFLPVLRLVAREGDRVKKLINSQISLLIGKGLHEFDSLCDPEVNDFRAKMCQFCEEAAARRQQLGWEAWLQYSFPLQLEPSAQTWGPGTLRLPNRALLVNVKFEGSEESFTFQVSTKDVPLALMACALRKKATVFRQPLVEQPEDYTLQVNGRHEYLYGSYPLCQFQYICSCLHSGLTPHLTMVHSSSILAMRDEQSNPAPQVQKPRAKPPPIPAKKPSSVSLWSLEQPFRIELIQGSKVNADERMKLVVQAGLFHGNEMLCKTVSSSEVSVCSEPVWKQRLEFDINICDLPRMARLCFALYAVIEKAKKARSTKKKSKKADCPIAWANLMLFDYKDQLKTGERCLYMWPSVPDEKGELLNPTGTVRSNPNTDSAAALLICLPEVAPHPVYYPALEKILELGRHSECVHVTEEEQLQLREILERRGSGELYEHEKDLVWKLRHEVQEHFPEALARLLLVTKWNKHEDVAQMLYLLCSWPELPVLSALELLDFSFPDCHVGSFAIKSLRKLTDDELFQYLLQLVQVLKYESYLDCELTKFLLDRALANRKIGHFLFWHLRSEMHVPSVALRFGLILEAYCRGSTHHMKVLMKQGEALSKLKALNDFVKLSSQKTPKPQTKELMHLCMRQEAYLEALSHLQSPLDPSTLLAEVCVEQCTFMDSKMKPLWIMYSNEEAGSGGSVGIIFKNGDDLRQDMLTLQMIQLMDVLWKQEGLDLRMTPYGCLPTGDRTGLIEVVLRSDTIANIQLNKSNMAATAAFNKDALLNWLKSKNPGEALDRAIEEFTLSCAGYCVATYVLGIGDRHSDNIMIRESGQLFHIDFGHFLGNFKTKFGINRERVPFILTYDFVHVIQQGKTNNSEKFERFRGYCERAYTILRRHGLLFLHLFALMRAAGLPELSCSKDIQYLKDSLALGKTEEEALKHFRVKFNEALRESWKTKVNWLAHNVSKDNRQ

[9] = target: EGFR (human) (UniProt P00533); conditions: a431
[10] = target: PIK3CB;PIK3CG;PIK3CD;PIK3CA (human) (UniProt P48736); assay: Antiproliferation of Anti-IgM stimulated Human B Cells by PI3K Inhibitors
[11] = target: EGFR (human) (UniProt P00533); remark: listed apart in the source
[12] = target: PIK3CB;PIK3CG;PIK3CD;PIK3CA (human) (UniProt P48736); assay: Assessment of PIK3CA/PIK3CB/PIK3CD/PIK3CG Kinase Activity
[13] = target: EGFR (murine) (UniProt P00533); conditions: nih3t3
[14] = target: EGFR (Balb/c mice) (UniProt P00533)
[15] = target: EGFR (human) (UniProt P00533); conditions: a431; remark: listed apart in the source
[16] = target: EGFR (human) (UniProt P00533); conditions: concentration not given here; remark: listed apart in the source
[17] = target: EGFR (human) (UniProt P00533); conditions: kb
[18] = target: PIK3CA (bovine) (UniProt P32871); assay: Inhibition of PIK3CA Kinase Activity
PIK3CA (bovine), sequence (P32871 whole entry, looked up): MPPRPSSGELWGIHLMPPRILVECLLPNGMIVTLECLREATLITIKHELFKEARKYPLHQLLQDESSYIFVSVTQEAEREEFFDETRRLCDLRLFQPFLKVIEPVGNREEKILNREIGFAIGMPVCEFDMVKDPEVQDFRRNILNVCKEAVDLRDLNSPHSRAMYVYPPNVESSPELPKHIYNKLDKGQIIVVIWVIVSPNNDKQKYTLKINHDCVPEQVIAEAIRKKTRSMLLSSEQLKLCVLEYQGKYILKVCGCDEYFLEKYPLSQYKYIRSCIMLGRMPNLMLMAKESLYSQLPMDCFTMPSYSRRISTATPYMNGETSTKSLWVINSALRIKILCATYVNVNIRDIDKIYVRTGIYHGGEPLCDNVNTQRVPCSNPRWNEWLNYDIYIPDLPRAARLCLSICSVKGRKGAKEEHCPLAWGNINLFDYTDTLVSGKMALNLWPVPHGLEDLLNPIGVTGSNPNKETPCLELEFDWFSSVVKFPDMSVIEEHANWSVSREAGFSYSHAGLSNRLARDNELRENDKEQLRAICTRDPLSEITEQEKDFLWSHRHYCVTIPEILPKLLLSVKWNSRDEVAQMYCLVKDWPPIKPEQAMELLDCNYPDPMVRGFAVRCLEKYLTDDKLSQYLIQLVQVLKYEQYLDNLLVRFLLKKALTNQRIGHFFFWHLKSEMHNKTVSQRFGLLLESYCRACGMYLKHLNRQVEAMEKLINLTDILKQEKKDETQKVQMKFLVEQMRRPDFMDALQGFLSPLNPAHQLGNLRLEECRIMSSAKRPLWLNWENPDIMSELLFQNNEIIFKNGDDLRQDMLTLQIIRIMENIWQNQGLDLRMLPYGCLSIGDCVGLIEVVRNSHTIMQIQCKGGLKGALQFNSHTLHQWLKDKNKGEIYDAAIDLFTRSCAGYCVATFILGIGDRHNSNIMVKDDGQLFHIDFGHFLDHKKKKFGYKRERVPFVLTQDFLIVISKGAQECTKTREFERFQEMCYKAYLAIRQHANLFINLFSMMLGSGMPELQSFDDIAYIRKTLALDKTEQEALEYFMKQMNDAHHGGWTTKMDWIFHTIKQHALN

[19] = target: PIK3CB (Human) (UniProt P42338); assay: Inhibition of PIK3CB Kinase (ATP Loss) Activity
[20] = target: EGFR (UniProt P00533); remark: listed apart in the source
[21] = target: EGFR (human) (UniProt P00533); remark: listed apart in the source
[22] = target: MAPK14 (human) (UniProt Q16539); assay: Inhibition of TNF-alpha Production in LPS Stimulated Whole Blood; conditions: blood cells
[23] = target: MAPK14 (human) (UniProt Q16539); assay: Inhibition of IL-beta Production in LPS Stimulated Whole Blood; conditions: blood cells
[24] = target: EGFR (UniProt P00533); remark: listed apart in the source
[25] = target: PIK3CA (human) (UniProt P42336); assay: Inhibition of PIK3CA Kinase Activity
PIK3CA (human), sequence (P42336 whole entry, looked up): as the sequence (P32871 whole entry, looked up) above, with R532K, C535S counted along it

[26] = target: PIK3CA (human) (UniProt P42336); assay: Assesment of Cell Proliferation of IGROV-1 Cells Using SRB Assay
[27] = target: EGFR (human) (UniProt P00533); remark: listed apart in the source
[28] = target: PIK3CA (human) (UniProt P42336); assay: Antiproliferation of NZB5 Cell Line Using Thymidine Depletion Assay
[29] = target: PIK3CA (human) (UniProt P42336); assay: Antiproliferation of NZOV9 Cell Line Using Thymidine Depletion Assay
[30] = target: MAPK14 (UniProt Q16539); assay: p38 MAP kinase Inhibition Assay
MAPK14, sequence (Q16539 whole entry, looked up): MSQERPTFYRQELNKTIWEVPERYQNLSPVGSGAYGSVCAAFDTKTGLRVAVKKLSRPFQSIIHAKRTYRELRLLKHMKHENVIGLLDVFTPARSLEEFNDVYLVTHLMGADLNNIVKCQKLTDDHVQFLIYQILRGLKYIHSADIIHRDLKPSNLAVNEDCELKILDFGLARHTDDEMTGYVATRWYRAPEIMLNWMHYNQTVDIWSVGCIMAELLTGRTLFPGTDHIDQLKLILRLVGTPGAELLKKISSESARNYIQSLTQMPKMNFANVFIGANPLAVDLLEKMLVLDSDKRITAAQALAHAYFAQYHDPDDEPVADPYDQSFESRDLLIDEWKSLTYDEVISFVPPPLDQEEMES

[31] = target: EGFR (human) (UniProt P00533); conditions: a431; remark: listed apart in the source
[32] = target: CDK2 (UniProt P24941); assay: Enzyme Assay; conditions: concentration not given here
[33] = target: MAPK14 (UniProt Q16539); assay: p38-alpha Kinase Inhibition; conditions: concentration not given here
[34] = target: ROCK2 (UniProt O75116); assay: ROCK2 Kinase Inhibition; conditions: concentration not given here
[35] = target: EGFR (human) (UniProt P00533); remark: listed apart in the source
[36] = target: MAPK14 (UniProt Q16539); assay: Inhibition of MAPK14 Kinase Activity (Spectrophometric Assay)

EGFR (human), sequence (P00533 whole entry, looked up): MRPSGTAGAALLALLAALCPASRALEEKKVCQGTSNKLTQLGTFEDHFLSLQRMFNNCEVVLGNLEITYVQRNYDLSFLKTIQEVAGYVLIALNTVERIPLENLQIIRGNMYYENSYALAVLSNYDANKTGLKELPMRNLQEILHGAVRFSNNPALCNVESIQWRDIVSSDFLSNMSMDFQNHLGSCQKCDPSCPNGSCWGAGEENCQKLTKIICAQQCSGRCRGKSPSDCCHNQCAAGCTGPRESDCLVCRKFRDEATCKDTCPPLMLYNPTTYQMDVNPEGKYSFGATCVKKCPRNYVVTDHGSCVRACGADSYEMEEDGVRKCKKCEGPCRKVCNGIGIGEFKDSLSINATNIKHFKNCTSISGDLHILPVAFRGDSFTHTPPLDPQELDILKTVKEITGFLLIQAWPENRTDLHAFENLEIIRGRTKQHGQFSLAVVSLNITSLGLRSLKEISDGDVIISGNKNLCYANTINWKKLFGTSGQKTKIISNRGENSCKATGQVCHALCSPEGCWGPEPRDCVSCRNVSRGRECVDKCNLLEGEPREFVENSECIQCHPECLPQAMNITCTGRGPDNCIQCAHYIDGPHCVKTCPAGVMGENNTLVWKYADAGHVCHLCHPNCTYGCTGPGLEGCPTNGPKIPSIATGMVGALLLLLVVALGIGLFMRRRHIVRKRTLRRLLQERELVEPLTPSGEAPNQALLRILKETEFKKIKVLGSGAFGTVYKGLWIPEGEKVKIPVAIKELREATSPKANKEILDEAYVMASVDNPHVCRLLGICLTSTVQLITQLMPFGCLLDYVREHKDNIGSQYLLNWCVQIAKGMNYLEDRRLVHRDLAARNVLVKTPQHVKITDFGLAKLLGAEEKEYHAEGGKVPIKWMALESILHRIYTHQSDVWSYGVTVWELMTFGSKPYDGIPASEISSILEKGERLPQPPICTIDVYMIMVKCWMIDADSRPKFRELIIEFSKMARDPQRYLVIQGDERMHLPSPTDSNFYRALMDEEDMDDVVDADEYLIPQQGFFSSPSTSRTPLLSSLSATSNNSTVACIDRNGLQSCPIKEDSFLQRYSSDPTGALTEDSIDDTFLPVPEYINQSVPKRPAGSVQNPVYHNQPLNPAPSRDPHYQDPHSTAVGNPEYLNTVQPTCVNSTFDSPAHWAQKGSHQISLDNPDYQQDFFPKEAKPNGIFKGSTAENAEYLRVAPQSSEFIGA
EGFR, sequence (P00533 whole entry, looked up): as above
MAPK14 (human), sequence (Q16539 whole entry, looked up): as the sequence (Q16539 whole entry, looked up) above

## Cc1cc2c(F)c(Nc3ncnc4cc(OCCCN5CCCC5)c(OCCCCCC(=O)NO)cc34)ccc2[nH]1
[1]
  IC50: ≤ 0.1 µM

## CN(C)CC(=O)N1CCC(Oc2ccc3ncnc(Nc4ccc(OCc5cnccn5)c(Cl)c4)c3c2)CC1
[2]
  IC50: 0.021 µM

## COc1ccc2[nH]c3c(-c4ccccc4OC)nc4c(c3c2c1)C(=O)NC4=O
[3]
  IC50: > 30 µM
[4]
  IC50: > 30 µM

## CN1CCC(c2[nH]nc(-c3ccc(Cl)cc3)c2-c2ccncn2)CC1
[5]
  IC50: 0.048 µM
[6]
  IC50: < 1 µM

## COCCOc1cc2ncnc(NC3=CC(=O)C(OCc4ccccc4)=CC3=O)c2cc1OC
[7]
  inhibition: -30%

## O=S(=O)(CCc1cccc(C(F)(F)F)c1)Cc1cc(N2CCOCC2)nc(-c2ccccn2)n1
[8]
  IC50: 6.8 µM

## FC(F)(F)c1cccc(Nc2ncnc3[nH]c(Cc4ccc(Cl)cc4Cl)cc23)c1
[9]
  IC50: 198 µM

## C[C@H](Nc1ncnc2[nH]cnc12)C1=C(c2ccccc2)[NH+]([O-])c2cc(F)ccc2C1 (stereo not given in full)
[10]
  IC50: 0.00464 µM

## OC[C@@H]1CCCN1Cc1ccc(Nc2nc3ncnc(Nc4ccc(F)c(Cl)c4)c3s2)cc1
[11]
  IC50: 0.0109 µM

## CS(=O)(=O)N1CCC(COc2ccc3ncnc(Nc4ccc(OCc5ccccn5)c(Cl)c4)c3c2)C1 (stereo not given)
[2]
  IC50: 0.213 µM

## COc1cnc2[nH]c3cnc(-c4cccnc4)cc3c2c1-c1ccc(NS(C)(=O)=O)cc1
[12]
  IC50: 0.001 to 0.1 µM

## Fc1ccc(OCCc2ccccc2)c(-c2nc3c(Cl)cccc3cc2CNc2ncnc3[nH]cnc23)c1
[10]
  IC50: 0.565 µM

## COc1cc2ncnc(Nc3cccc(Cl)c3)c2cc1OC
[13]
  IC50: < 0.015 µM
[14]
  LD50: > 200 mg/kg
[15]
  GI50: 0.302 µM

## CC(C)(C)Nc1nc(Nc2ccc3ncsc3c2)nc2[nH]cnc12
[16]
  inhibition: 65 to 80%

## COc1cc2ncnc(Nc3cccc(Cl)c3F)c2cc1O[C@H]1CCN(C)[C@H](C(N)=O)C1
[17]
  IC50: 0.056 µM

## COc1cccc(-c2nc(N3CCOCC3)c3oc4ncccc4c3n2)c1
[18]
  IC50: 0.1 µM

## CN(C)c1cc(-c2ccc3ncccc3c2)cnc1Cl
[19]
  IC50: 40 µM

## COc1ccc(N2Cc3cnc(Nc4ccccc4)nc3N(c3ccccc3)C2=O)cc1
[20]
  IC50: 0.36 µM and 0.35 µM

## COc1ccc(NN=Cc2c(N)ncnc2Nc2ccc3c(cnn3Cc3cccc(F)c3)c2)cc1
[21]
  IC50: 0.049 µM

## O=S(=O)(Nc1cc(-c2ccc3cnccc3c2)cnc1Cl)c1ccc(F)cc1
[19]
  IC50: 40 µM

## CN(c1ccc(N2CCOCC2)cc1)c1ncnc2nc(Nc3ccc(S(N)(=O)=O)cc3)sc12
[11]
  IC50: 3.3 µM

## CCc1nc2c(NC(C)(C)C)nc(Nc3ccc4ncsc4c3)nc2[nH]1
[16]
  inhibition: < 50%

## CSc1nc(-c2ccc(F)cc2)c(-c2ccnc(NC(C)=O)c2)n1CCN1CCOCC1
[22]
  IC50: > 10 µM
[23]
  IC50: > 10 µM

## COc1cc2c(Nc3ccc4[nH]c(C)cc4c3F)ncnc2cc1OCCCCCCC(=O)NO
[1]
  IC50: ≤ 0.1 µM

## COc1ccc2[nH]c3c(-c4ccccc4)nc4c(c3c2c1)C(=O)NC4=O
[3]
  IC50: > 30 µM
[4]
  IC50: 8.9 µM

## O=C(CO)N1CCC(c2[nH]nc(-c3ccc(Cl)cc3)c2-c2ccncc2)CC1
[5]
  IC50: 0.111 µM
[6]
  IC50: < 1 µM

## CCNC(=O)Nc1nc2nc(NCCCCN(CC)CC)ncc2cc1-c1cc(OC)cc(OC)c1
[24]
  IC50: > 50 µM

## Nc1nc(Nc2ccc(Cl)cc2Br)c2cc(Cc3ccc(Cl)cc3Cl)[nH]c2n1
[9]
  IC50: 16.2 µM

## CSc1nc(-c2ccc(F)cc2)c(-c2ccnc(NC(C)=O)c2)n1CCN1CCCCC1
[22]
  IC50: > 10 µM
[23]
  IC50: > 10 µM

## CS(=O)(=O)Nc1cccc(-c2cc(N3CCOCC3)nc(OCc3ccccn3)n2)c1
[25]
  IC50: 6.2 µM
[26]
  GI50: 13.5 µM

## C=C=CCCCCCOc1cc2c(Nc3ccc(F)c(Cl)c3)ncnc2cc1OC
[15]
  GI50: 0.586 µM
[27]
  IC50: 0.00445 µM

## O=C(CO)N1CCC(c2[nH]nc(-c3ccc(Cl)cc3)c2-c2ccncn2)CC1
[6]
  IC50: 0.101 µM

## Cc1ccc([N+](=O)[O-])cc1S(=O)(=O)N(C)N=Cc1csc2ccccc12
[28]
  IC50: > 20 µM
[29]
  IC50: > 20 µM

## C=C=CCCCOc1cc2c(Nc3ccc(F)c(Cl)c3)ncnc2cc1OC
[15]
  GI50: 0.268 µM

## CSc1nc(-c2ccc(F)cc2)c(-c2ccnc(NC(C)=O)c2)n1CCOCCO
[22]
  IC50: > 100 µM
[23]
  IC50: > 100 µM

## CS(=O)(=O)Nc1ccc(-c2c(F)cnc3[nH]c4cnc(-c5cccnc5)cc4c23)cc1
[12]
  IC50: 0.1 to 1 µM

## CS(=O)(=O)Cc1cc(N2CCOCC2)nc(-c2ccc(NS(C)(=O)=O)cc2)n1
[8]
  IC50: 54 µM

## Cc1cccnc1-c1nc2c(Cl)cccc2cc1CNc1ncnc2[nH]cnc12
[10]
  IC50: 0.079 µM

## COc1ccc(Nc2ncc3c(n2)N(c2ccccc2)C(=O)N(c2ccc(OC)cc2)C3)cc1
[20]
  IC50: 0.18 µM

## CCNC(=O)Nc1nc2nc(NCCCN3CCN(C)CC3)ncc2cc1-c1cc(OC)cc(OC)c1
[24]
  IC50: > 50 µM

## c1cncc(CCc2c[nH]c3ccccc23)c1
[30]
  IC50: 1000 µM

## Oc1cccc(-c2c(F)cnc3[nH]c4cnc(-c5cccnc5)cc4c23)c1
[12]
  IC50: 0.1 to 1 µM

## CN(C)CC(=O)N1CCC(Oc2ccc3ncnc(Nc4ccc(OCc5ccccn5)c(Cl)c4)c3c2)CC1
[2]
  IC50: 0.039 µM

## c1ccc(CCNc2nc(-c3ccc4cc[nH]c4c3)cc(N3CCOCC3)n2)nc1
[25]
  IC50: 8.9 µM
[26]
  GI50: 3.6 µM

## COc1cc2[nH]c3c(-c4ccccc4C)nc4c(c3c2cc1OC)C(=O)NC4=O
[3]
  IC50: > 30 µM
[4]
  IC50: > 30 µM

## COc1ccc(N2Cc3cnc(Nc4ccc(O)cc4)nc3N(c3ccccc3)C2=O)cc1
[20]
  IC50: 0.13 µM

## CCN(c1ccc(N2CCOCC2)cc1)c1ncnc2nc(Nc3ccc(S(N)(=O)=O)cc3)sc12
[11]
  IC50: 10.1 µM

## COc1cc2ncnc(Nc3ccc4occc4c3)c2cc1OCCCCCCC(=O)NO
[1]
  IC50: ≤ 0.1 µM

## COCCOc1cc2ncnc(NC3=CC(=O)C(OCc4cccc(F)c4)=CC3=O)c2cc1OC
[7]
  inhibition: -27%

## C=C(CN1CCOCC1)C(=O)Nc1ccc2ncnc(Nc3cccc(Br)c3)c2c1
[31]
  IC50: 0.128 µM

## COc1cc(OC)cc(-c2cc3cnc(NCCCN4CCN(C)CC4)nc3nc2NC(=O)NC(C)(C)C)c1
[24]
  IC50: > 50 µM

## Nc1ncnc(Nc2ccc3c(cnn3Cc3cccc(F)c3)c2)c1C=NNCC(F)(F)F
[21]
  IC50: 0.0529 µM

## CNC(=O)[C@H]1C[C@H](Oc2cc3c(Nc4cccc(Cl)c4F)ncnc3cc2OC)CCN1C
[17]
  IC50: 0.023 µM

## Cc1ccc([N+](=O)[O-])cc1S(=O)(=O)N(C)N=Cc1cccc2ccccc12
[28]
  IC50: > 20 µM
[29]
  IC50: > 20 µM

## Cn1cc(C2=C(c3cn(CCCN)c4ccccc34)C(=O)NC2=O)c2ccccc21
[32]
  activity: 34%
[33]
  activity: 38%
[34]
  activity: 33%

## c1cnc2c(c1)ccn2CCc1ccncc1
[30]
  IC50: 177 µM

## c1cnc2[nH]c3c(N4CCOCC4)ncnc3c2c1
[18]
  IC50: > 30 µM

## c1ccc(-c2nc(N3CCOCC3)c3sc4ccccc4c3n2)cc1
[18]
  IC50: > 30 µM

## CS(=O)(=O)Nc1cccc(-c2cc(OCc3ccccn3)nc(N3CCOCC3)n2)c1
[25]
  IC50: > 10 µM
[26]
  GI50: 16 µM

## Cc1ccc(S(=O)(=O)n2cc(/C=C/c3cccnc3)c3ccccc32)cc1
[30]
  IC50: 1000 µM

## CN1CCCC1CCn1cc(C2=C(c3c[nH]c4ccccc34)C(=O)NC2=O)c2ccccc21 (stereo not given)
[32]
  activity: 25%
[33]
  activity: 86%
[34]
  activity: 82%

## Cc1nc2c(NC(C)(C)C)nc(Nc3ccc4ncsc4c3)nc2[nH]1
[16]
  inhibition: < 50%

## Cc1ccc([N+](=O)[O-])cc1S(=O)(=O)N(C)N=Cc1cncn1C
[28]
  IC50: > 20 µM
[29]
  IC50: > 20 µM

## CNC(=O)[C@@H]1C[C@@H](Oc2cc3c(Nc4cccc(Cl)c4F)ncnc3cc2OC)CCN1C
[17]
  IC50: 0.061 µM

## O=S(=O)(CCNCCCc1ccc(-c2ccc3ncnc(Nc4ccc(OCc5ccccc5)c(Cl)c4)c3c2)o1)c1ccccc1
[35]
  IC50: 0.05 µM

## Cc1cc(NC(=O)Nc2ccc(-c3nc(CS(C)(=O)=O)cc(N4CCOCC4)n3)cc2)no1
[8]
  IC50: 57.8 µM and 91.2 µM

## CC(C)(C)c1cc(NC(=O)Nc2cccc3ccccc23)n(-c2ccc(CO)cc2)n1
[36]
  IC50: 0.008 µM

## COCCOc1cc2ncnc(NC3=CC(=O)C(OCc4cccc(OC)c4)=CC3=O)c2cc1OC
[7]
  inhibition: -13%

## COc1ccc(OC)c(Cc2cc3c(Nc4cccc(Br)c4)ncnc3[nH]2)c1
[9]
  IC50: 4.5 µM
